Literature values in patent US8617618B2, “Topical compositions containing magaldrate” (Difass International S.R.L., priority 2007, dated 2013).

How the values were obtained:
[1] = in water and alcohol; white, crystalline powder
[2] = test system: gastric pH; settings: rapid, persistent ability to maintain the gastric pH
[3] = single and repeated oral doses
[4] = humans, oral intake

## Magaldrate
[1]
  solubility: insoluble
[2]
  gastric pH maintained: 3-5
[3]
  toxicity: almost non-toxic
[4]
  absorption of aluminium or magnesium: not followed by any significant absorption
